These are literature values, as cited in article PMC6784077 (Viruses, 2019).

Turning to enfuvirtide, the t1/2 is reported as ~ 1.5 h.
